What follows are compounds tested against T1, glucocorticoid receptor (Homo sapiens, UniProt P04150) (assay: Glucocorticoid Receptor Binding Assay ([3H]-dexamethasone displacement, A549 cell extract)). Conditions: A549 human lung epithelial cell extract, 1.86 nM [3H]-dexamethasone; read-out: GR Ki.
T1 construct: host or cells: A549 human lung epithelial cells (sonicated cell extract)
T1 sequence (P04150 1-777): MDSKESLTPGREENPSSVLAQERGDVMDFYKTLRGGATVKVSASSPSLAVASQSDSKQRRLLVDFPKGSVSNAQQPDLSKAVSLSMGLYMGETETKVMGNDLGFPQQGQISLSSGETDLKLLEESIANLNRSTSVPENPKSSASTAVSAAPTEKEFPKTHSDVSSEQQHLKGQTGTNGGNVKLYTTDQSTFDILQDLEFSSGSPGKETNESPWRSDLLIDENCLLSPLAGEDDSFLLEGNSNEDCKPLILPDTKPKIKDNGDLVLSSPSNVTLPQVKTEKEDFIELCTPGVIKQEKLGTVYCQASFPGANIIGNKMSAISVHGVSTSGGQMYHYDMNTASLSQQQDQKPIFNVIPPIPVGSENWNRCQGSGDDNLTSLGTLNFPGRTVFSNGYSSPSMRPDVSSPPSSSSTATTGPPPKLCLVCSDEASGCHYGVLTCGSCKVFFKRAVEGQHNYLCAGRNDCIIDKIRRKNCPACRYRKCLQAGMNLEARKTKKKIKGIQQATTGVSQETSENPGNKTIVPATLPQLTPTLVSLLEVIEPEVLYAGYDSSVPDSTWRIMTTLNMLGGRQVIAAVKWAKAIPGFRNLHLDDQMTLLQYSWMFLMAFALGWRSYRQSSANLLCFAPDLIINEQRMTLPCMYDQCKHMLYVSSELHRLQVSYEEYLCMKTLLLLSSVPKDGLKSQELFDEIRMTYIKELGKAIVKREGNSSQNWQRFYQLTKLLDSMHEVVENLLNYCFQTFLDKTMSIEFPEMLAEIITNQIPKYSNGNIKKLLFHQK
Description: Glucocorticoid Receptor Binding Assay:
A549 human lung epithelial cells (ATCC) are grown at a scale where gram quantity cell pellets are obtained. Harvested cell pellets are washed twice in cold phosphate buffered saline, centrifuged, and resuspended in cold assay binding buffer. The assay binding buffer consists of 10% glycerol, 50 mM Tris-HCl (pH7.2), 75 mM sodium chloride, 1.5 mM magnesium chloride, 1.5 mM EDTA, and 10 mM sodium molybdate. Cell suspensions were lysed via sonication, centrifuged, and the “extract” supernatant is snap frozen and stored at −80C. until needed.
GR binding assays are performed in a final volume of 140 ul containing 50-200 ug of A549 cell extract and 1.86 nM [^3H]-dexamethasone (Amersham) plus varying concentrations of test compound or vehicle. Briefly, assays are prepared at RT in 96-well Fisher 3356 plates, each well containing 100 ul of A549 cell extract, 20 ul of [^3H]-dexamethasone, and 20 ul of test compound/vehicle. Incubations are carried out at 4 degrees celsius for 16 hours. After incubation, 70 ul of 3× dextran-coated charcoal solution is added to each reaction, mixed, and incubated for 8 minutes at RT. 3×-dextran-coated charcoal solution consists of 250 ml assay binding buffer, 3.75 g Norit A charcoal (Sigma), and 1.25 g dextran T-70 (Amersham). Charcoal/unbound radioligand complexes are removed by centrifugation of the plate and 140 ul of supernatant from each well is transferred to another 96 well Optiplate (Packard Instruments). 200 ul of Microscint-20 scinillant (Packard Instruments) is added to each well and amount of receptor bound radioligand is determined using Packard Instruments TopCount instrument.
IC50 values, defined as the concentration of test compound required to decrease [^3H]-dexamethasone binding by 50%, are then determined. Ki values for each respective test compound can then be calculated by application of the Cheng-Prusoff equation as described in Cheng et al., Relationship Between The Inhibition Constant (Ki) and The Concentration of Inhibitor Which Causes 50% Inhibition (IC50) of an Enzymatic Reaction, Biochem. Pharmacol., 22: 3099-31088; (1973).

Structure (SMILES) | Ki [nM]
Cc1cc(C2(c3cc(C)c(O)c(C)c3)C(=O)N(C)c3ccccc32)cc(C)c1O [Example 4, 3,3-Bis-(4-hydroxy-3,5-dimethyl-phenyl)-1-methyl-1,3-dihydro-indol-2-one] | ≤ 500
CCCN1C(=O)C(c2cc(C)c(O)c(C)c2)(c2cc(C)c(O)c(C)c2)c2ccccc21 [Example 5, 3,3-Bis-(4-hydroxy-3,5-dimethyl-phenyl)-1-propyl-1,3-dihydro-indol-2-one] | ≤ 500
Cc1cc(C2(c3cc(C)c(O)c(C)c3)C(=O)N(CC3CCCCC3)c3ccccc32)cc(C)c1O [Example 6, 1-Cyclohexylmethyl-3,3-bis-(4-hydroxy-3,5-dimethyl-phenyl)-1,3-dihydro-indol-2-one] | ≤ 500
Cc1cc(C2(c3cc(C)c(O)c(C)c3)C(=O)N(Cc3c(C)noc3C)c3ccccc32)cc(C)c1O [Example 9, 1-(3,5-Dimethyl-isoxazol-4-ylmethyl)-3,3-bis-(4-hydroxy-3,5-dimethyl-phenyl)-1,3-dihydro-indol-2-one] | ≤ 500
Cc1cc(C2(c3ccc(O)c(C)c3)C(=O)N(Cc3ccccc3)c3ccccc32)ccc1O [Example 12, 1-Benzyl-3,3-bis-(4-hydroxy-3-methyl-phenyl)-1,3-dihydro-indol-2-one] | ≤ 500
O=C1N(Cc2ccccc2)c2ccccc2C1(c1cc(Cl)c(O)c(Cl)c1)c1cc(Cl)c(O)c(Cl)c1 [Example 14, 1-Benzyl-3,3-bis-(3,5-dichloro-4-hydroxy-phenyl)-1,3-dihydro-indol-2-one] | ≤ 500
Cc1cc(C2(c3cc(C)c(O)c(C)c3)C(=O)N(Cc3ccccc3Cl)c3ccc(Br)cc32)cc(C)c1O [Example 19, 5-Bromo-1-(2-chloro-benzyl)-3,3-bis-(4-hydroxy-3,5-dimethyl-phenyl)-1,3-dihydro-indol-2-one] | ≤ 1000
Cc1ccccc1CN1C(=O)C(c2cc(C)c(O)c(C)c2)(c2cc(C)c(O)c(C)c2)c2cc(Br)ccc21 [Example 20, 5-Bromo-3,3-bis-(4-hydroxy-3,5-dimethyl-phenyl)-1-(2-methyl-benzyl)-1,3-dihydro-indol-2-one] | ≤ 500
Cc1ccc2c(c1)C(c1cc(C)c(O)c(C)c1)(c1cc(C)c(O)c(C)c1)C(=O)N2Cc1ccccc1C [Example 21, 3,3-Bis-(4-hydroxy-3,5-dimethyl-phenyl)-5-methyl-1-(2-methyl-benzyl)-1,3-dihydro-indol-2-one] | ≤ 500
Cc1ccc2c(c1)C(c1cc(C)c(O)c(C)c1)(c1cc(C)c(O)c(C)c1)C(=O)N2Cc1ccccc1Cl [Example 22, 1-(2-Chloro-benzyl)-3,3-bis-(4-hydroxy-3,5-dimethyl-phenyl)-5-methyl-1,3-dihydro-indol-2-one] | ≤ 500
Cc1ccc2c(c1)C(c1cc(C)c(O)c(C)c1)(c1cc(C)c(O)c(C)c1)C(=O)N2Cc1ccccc1C#N [Example 23, 2-[3,3-Bis-(4-hydroxy-3,5-dimethyl-phenyl)-5-methyl-2-oxo-2,3-dihydro-indol-1-ylmethyl]-benzonitrile] | ≤ 500
Cc1cc(C2(c3cc(C)c(O)c(C)c3)C(=O)N(Cc3ccccc3Cl)c3c(C)cccc32)cc(C)c1O [Example 24, 1-(2-Chloro-benzyl)-3,3-bis-(4-hydroxy-3,5-dimethyl-phenyl)-7-methyl-1,3-dihydro-indol-2-one] | ≤ 1000
CCc1cccc2c1N(Cc1ccccc1Cl)C(=O)C2(c1cc(C)c(O)c(C)c1)c1cc(C)c(O)c(C)c1 [Example 25, 1-(2-Chloro-benzyl)-7-ethyl-3,3-bis-(4-hydroxy-3,5-dimethyl-phenyl)-1,3-dihydro-indol-2-one] | ≤ 1000
Cc1cc(C2(c3cc(C)c(O)c(C)c3)C(=O)N(Cc3ccccc3Cl)c3cccc(Cl)c32)cc(C)c1O [Example 26, 4-Chloro-1-(2-chloro-benzyl)-3,3-bis-(4-hydroxy-3,5-dimethyl-phenyl)-1,3-dihydro-indol-2-one] | ≤ 500
Cc1cc(C2(c3cc(C)c(O)c(C)c3)C(=O)N(Cc3ccccc3Cl)c3ccccc32)cc(C)c1N (stereo not drawn) [Example 35, 3-(4-Amino-3,5-dimethyl-phenyl)-1-(2-chloro-benzyl)-3-(4-hydroxy-3,5-dimethyl-phenyl)-1,3-dihydro-indol-2-one] | ≤ 500
Cc1cc(C2(c3ccc(O)cc3)C(=O)N(Cc3ccccc3Cl)c3ccccc32)cc(C)c1O (stereo not drawn) [Example 36, 1-(2-Chloro-benzyl)-3-(4-hydroxy-3,5-dimethyl-phenyl)-3-(4-hydroxy-phenyl)-1,3-dihydro-indol-2-one] | ≤ 500
Cc1cc(C2(c3cc(C)c(O)c(C)c3)C(=O)N(Cc3ccccc3-c3ccccc3)c3ccccc32)cc(C)c1O [Example 54, 1-Biphenyl-2-ylmethyl-3,3-bis-(4-hydroxy-3,5-dimethyl-phenyl)-1,3-dihydro-indol-2-one] | ≤ 1000

More lines, now with the values ahead:

Ki [nM] | Structure (SMILES)
≤ 500 | COc1ccc(CN2C(=O)C(c3cc(C)c(O)c(C)c3)(c3cc(C)c(O)c(C)c3)c3ccccc32)cc1 [Example 1, 3,3-Bis-(4-hydroxy-3,5-dimethyl-phenyl)-1-(4-methoxy-benzyl)-1,3-dihydro-indol-2-one]
≤ 500 | COC(=O)c1ccc(CN2C(=O)C(c3cc(C)c(O)c(C)c3)(c3cc(C)c(O)c(C)c3)c3ccccc32)cc1 [Example 3, 4-[3,3-Bis-(4-hydroxy-3,5-dimethyl-phenyl)-2-oxo-2,3-dihydro-indol-1-ylmethyl]-benzoic acid methyl ester]
≤ 500 | Cc1cc(C2(c3cc(C)c(O)c(C)c3)C(=O)N(Cc3cccc(OC(F)(F)F)c3)c3ccccc32)cc(C)c1O [Example 8, 3,3-Bis-(4-hydroxy-3,5-dimethyl-phenyl)-1-(3-trifluoromethoxy-benzyl)-1,3-dihydro-indol-2-one]
≤ 500 | Cc1cc(C2(c3cc(C)c(O)c(C)c3)C(=O)N(Cc3ccccc3Cl)c3ccccc32)cc(C)c1O [Example 11, 1-(2-Chloro-benzyl)-3,3-bis-(4-hydroxy-3,5-dimethyl-phenyl)-1,3-dihydro-indol-2-one]
≤ 1000 | Cc1cc(C2(c3cc(C)c(O)c(C)c3)C(=O)N(Cc3ccccc3)c3ccc(Br)cc32)cc(C)c1O [Example 15, 1-Benzyl-5-bromo-3,3-bis-(4-hydroxy-3,5-dimethyl-phenyl)-1,3-dihydro-indol-2-one]
≤ 500 | Cc1ccc2c(c1)C(c1cc(C)c(O)c(C)c1)(c1cc(C)c(O)c(C)c1)C(=O)N2Cc1ccccc1 [Example 17, 1-Benzyl-3,3-bis-(4-hydroxy-3,5-dimethyl-phenyl)-5-methyl-1,3-dihydro-indol-2-one]
≤ 500 | Cc1cc(C2(c3cc(C)c(O)c(C)c3)C(=O)N(Cc3ccc(F)cc3F)c3ccccc32)cc(C)c1O [Example 43, 1-(2,4-Difluoro-benzyl)-3,3-bis-(4-hydroxy-3,5-dimethyl-phenyl)-1,3-dihydro-indol-2-one]
≤ 500 | Cc1cc(C2(c3cc(C)c(O)c(C)c3)C(=O)N(Cc3ccccc3F)c3ccccc32)cc(C)c1O [Example 50, 1-(2-Fluoro-benzyl)-3,3-bis-(4-hydroxy-3,5-dimethyl-phenyl)-1,3-dihydro-indol-2-one]
≤ 1000 | Cc1cc(C2(c3cc(C)c(O)c(C)c3)C(=O)N(Cc3ccccc3C(F)(F)F)c3ccccc32)cc(C)c1O [Example 53, 3,3-Bis-(4-hydroxy-3,5-dimethyl-phenyl)-1-(2-trifluoromethyl-benzyl)-1,3-dihydro-indol-2-one]
≤ 500 | COc1cccc(CN2C(=O)C(c3cc(C)c(O)c(C)c3)(c3cc(C)c(O)c(C)c3)c3ccccc32)c1 [Example 56, 3,3-Bis-(4-hydroxy-3,5-dimethyl-phenyl)-1-(3-methoxy-benzyl)-1,3-dihydro-indol-2-one]

— patent US7250442B2, “Dihydroindol-2-one derivatives as steroid hormone nuclear receptor modulators” (Eli Lilly and Company, priority 2003, dated 2007)
